Assay [1] concerns the target T1, human MCHR1 (Homo sapiens, UniProt Q99705).
T1 construct: The full-length cDNA for human MCHR1 is cloned from a human adult brain cDNA library; expressed in transfected cells; host or cells: AV12 cells previously transfected with Gα15; membranes
Put plainly: Inhibition of MCH-stimulated GTPγ35S binding to clone 43 membranes (functional antagonism). The format is biochemical. To be noted: 10 nM MCH, Kb from IC50 by modified Cheng-Prusoff. How it is done: (§1) The full-length cDNA for human MCHR1 is cloned from a human adult brain cDNA library (Edge Biosystems, Cat. 38356) by standard polymerase chain reaction (PCR) methodology employing the following primers: sense, 5′-GCCACCATGGACCT GGAAGCCTCGCTGC-3′ (SEQ ID NO:1); anti-sense, 5′-[…]-3′ (SEQ ID NO:2). The PCR reaction is performed in a final volume of 50 μL containing 5 μL of a 10× stock solution of PCR buffer, 1 μL of 10 mM dNTP mixture (200 μM final), 2 μL of 50 mM Mg(SO4) (2 mM final), 0.5 μL of 20 μM solutions of each primer (0.2 μM final), 5 μL of template cDNA containing 0.5 ng DNA, 0.5 μL of Platinum Taq High Fidelity DNA polymerase (Gibco Life Technologies) and 36 μL of H2O. PCR amplification is performed on a Perkin Elmer 9600 thermocycler. Perform denaturation for 90 sec at 94° C., and repeat an amplification sequence consisting of 94° C. for 25 sec, 55° C. for 25 sec and 72° C. for 2 mM 30 times, followed by a final elongation step at 72° C. for 10 min. […]
(§2) In order to generate cell lines stably expressing MCHR1, subclone the insert into the Xba I and Not I sites of pcDNA(+)-3.1-neomycin (Invitrogen). […] The G418-resistant colonies are further selected for MCHR1 expression by measuring MCH-stimulated Ca^2+ transients with a fluorometric imaging plate reader (FLIPR, Molecular Devices). […]
A general note: GTPγS is a poorly hydrolysed GTP analogue; its binding reports G protein activation.

Assay [2] is described as follows: In vivo efficacy in diet-induced obese rats, oral gavage, body weight change over 3 days. To be noted: 10 mg/Kg orally once a day for 3 days, diet-induced obese male Long-Evans rats. On the procedure: Vehicle consisted of 10% acacia and 0.15% saccharin in water.
House animals individually in a temperature regulated room (24° C.) with a reverse 12 hour light/dark cycle (dark 10:00/22:00). Make water and food (Teklad 95217, Harlan, WI) available ad libitum. Dose compounds orally once a day before onset of dark for 3 days. Measure daily food intake and body weight change for the 3 day period. The compound of Example 5 produced an average body weight reduction of about 11 grams @ 10 mg/Kg versus vehicle control.

Assay [3] deals with T1, human MCHR1. Nature of the assay: 125I-MCH competitive binding assay with clone 43 membranes. Conditions: Ki from IC50 by Cheng-Prusoff. How it is done:
as §1, with “H2O.” for “H2O. PCR amplification is performed on a Perkin Elmer 9600 thermocycler. Perform denaturation for 90 sec at 94° C., and repeat an amplification sequence consisting of 94° C. for 25 sec, 55° C. for 25 sec and 72° C. for 2 mM 30 times, followed by a final elongation step at 72° C. for 10 min.”
as §2
Binding of compounds to MCHR1 is assessed in a competitive binding assay employing ^125I-MCH, compound and clone 43 membranes. […] Non-specific binding is assessed in the presence of 0.1 μM unlabeled MCH. Bound ^125I-MCH is determined by placing sealed plates in a Microbeta Trilux (Perkin Elmer Life and Analytical Sciences Inc.) and counting after a 12 h delay. […]

Counter-ions that a name gives are not always drawn.

T1 sequence (Q99705 whole entry): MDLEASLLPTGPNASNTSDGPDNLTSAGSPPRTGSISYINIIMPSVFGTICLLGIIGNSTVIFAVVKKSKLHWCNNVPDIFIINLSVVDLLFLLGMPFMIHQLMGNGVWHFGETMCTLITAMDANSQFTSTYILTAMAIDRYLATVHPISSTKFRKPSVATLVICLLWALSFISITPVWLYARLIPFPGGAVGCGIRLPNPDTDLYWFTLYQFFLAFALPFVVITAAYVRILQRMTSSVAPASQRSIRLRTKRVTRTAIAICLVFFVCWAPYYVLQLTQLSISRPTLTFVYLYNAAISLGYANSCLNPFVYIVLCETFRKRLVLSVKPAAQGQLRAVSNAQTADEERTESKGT

The Kb is the equilibrium dissociation constant of an antagonist, usually derived from a functional assay. A low value points to a more potent antagonist. With `CN(C)[C@@H]1CCN(c2ccc(N3CCc4cc(-c5ccc(Cl)cc5)sc4C3=O)cn2)C1.Cl` [Example 5, 2-(4-Chloro-phenyl)-6-[6-((R)-3-dimethylamino-pyrrolidin-1-yl)-pyridin-3-yl]-5,6-dihydro-4H-thieno[2,3-c]pyridin-7-one, hydrochloride], the Kb on human MCHR1 [1] is roughly 7 nM. The “average body weight reduction versus vehicle control” value in assay [2] is listed as “about 11 grams”.
Broadly, the Ki is the equilibrium dissociation constant of an inhibitor or competing ligand from its target. Consider `CN(C)[C@@H]1CCN(c2ccc(-n3ccc4cc(-c5ccc(OC6CC6)cc5)sc4c3=O)cn2)C1` [Example 55, 2-(4-Cyclopropoxy-phenyl)-6-[6-(R)-(3-dimethylamino-pyrrolidin-1-yl)-pyridin-3-yl]-6H-thieno[2,3-c]pyridin-7-one, hydrochloride], for which the Ki at human MCHR1 [3] is roughly 9 nM.
